Assay results: the supplement of paper PMC10307832

Key:
Test in all cases: relative viability (nuclei count vs DMSO), 5 days (fraction); higher = more cells survive
Tivantinib + Vorinostat = compound: O=C1NC(=O)[C@@H](c2cn3c4c(cccc24)CCC3)[C@@H]1c1c[nH]c2ccccc12 [Tivantinib] + O=C(CCCCCCC(=O)Nc1ccccc1)NO [Vorinostat] (partner 1 µM)
Method in brief: (§1)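 Medians of duplicate plates are given as relative viability. That measure is the nuclei count in treated wells divided by the count in vehicle wells. Counts were taken on 4× images of lung cancer cell lines in 1536-well plates, 5 days after pin-tool dosing the day after seeding with one drug alone or a fixed anchor-drug dose plus five library-drug doses (not always all listed) in √10 steps.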

Crenolanib + Alpelisib = compound: CC1(COc2ccc3c(c2)ncn3-c2ccc3cccc(N4CCC(N)CC4)c3n2)COC1 [Crenolanib] + Cc1nc(NC(=O)N2CCC[C@H]2C(N)=O)sc1-c1ccnc(C(C)(C)C(F)(F)F)c1 [Alpelisib] (partner 2 µM)
Method in brief: as §1

Crenolanib + Phenformin = compound: CC1(COc2ccc3c(c2)ncn3-c2ccc3cccc(N4CCC(N)CC4)c3n2)COC1 [Crenolanib] + N=C(N)NC(=N)NCCc1ccccc1 [Phenformin] (partner 250 µM)
Method in brief: as §1

Crenolanib + Trametinib = compound: CC1(COc2ccc3c(c2)ncn3-c2ccc3cccc(N4CCC(N)CC4)c3n2)COC1 [Crenolanib] + CC(=O)Nc1cccc(-n2c(=O)n(C3CC3)c(=O)c3c(Nc4ccc(I)cc4F)n(C)c(=O)c(C)c32)c1 [Trametinib] (partner 0.02 µM)
Method in brief: as §1

| Cell Line | relative viability (Tivantinib + Vorinostat; first compound 0.01 µM) | relative viability (Tivantinib + Vorinostat; first compound 0.03162 µM) | relative viability (Tivantinib + Vorinostat; first compound 0.1 µM) | relative viability (Tivantinib + Vorinostat; first compound 0.3162 µM) | relative viability (Crenolanib + Alpelisib; first compound 0.01 µM) | relative viability (Crenolanib + Alpelisib; first compound 0.03162 µM) | relative viability (Crenolanib + Alpelisib; first compound 0.1 µM) | relative viability (Crenolanib + Alpelisib; first compound 0.3162 µM) | relative viability (Crenolanib + Alpelisib; first compound 1 µM) | relative viability (Crenolanib + Phenformin; first compound 0.01 µM) | relative viability (Crenolanib + Phenformin; first compound 0.03162 µM) | relative viability (Crenolanib + Phenformin; first compound 0.1 µM) | relative viability (Crenolanib + Phenformin; first compound 0.3162 µM) | relative viability (Crenolanib + Phenformin; first compound 1 µM) | relative viability (Crenolanib + Trametinib; first compound 0.01 µM) | relative viability (Crenolanib + Trametinib; first compound 0.03162 µM) | relative viability (Crenolanib + Trametinib; first compound 0.1 µM) | relative viability (Crenolanib + Trametinib; first compound 0.3162 µM) | relative viability (Crenolanib + Trametinib; first compound 1 µM) |
| --- | --- | --- | --- | --- | --- | --- | --- | --- | --- | --- | --- | --- | --- | --- | --- | --- | --- | --- | --- |
| LXF-289 | 0.756 | 0.725 | 0.733 | 0.778 | 1.02 | 1.04 | 1.01 | 1.09 | 1.02 | 0.514 | 0.538 | 0.523 | 0.524 | 0.483 | 0.665 | 0.638 | 0.689 | 0.7 | 0.718 |
| NCI-H23 | 0.679 | 0.527 | 0.624 | 0.671 | 0.845 | 0.797 | 0.604 | 0.778 | 0.741 | 0.887 | 0.855 | 0.753 | 0.841 | 0.669 | 0.441 | 0.412 | 0.425 | 0.387 | 0.408 |
| NCI-H322M | 0.903 | 0.833 | 0.861 | – | 0.807 | 0.909 | 0.829 | 0.913 | 0.841 | 0.794 | 0.802 | 0.755 | 0.835 | 0.803 | 0.515 | 0.516 | 0.488 | 0.525 | 0.609 |
| NCI-H522 | 0.906 | 0.754 | 0.973 | 0.548 | – | – | – | – | – | 0.706 | 0.641 | 0.756 | 0.656 | 0.675 | 0.766 | 0.615 | 0.841 | 0.631 | 0.638 |
| NCI-H1299 | – | – | – | – | 1.04 | 1.06 | 0.982 | 1.06 | 1.05 | – | – | – | – | – | – | – | – | – | – |
| NCI-H1563 | – | – | – | – | 0.99 | 0.924 | 1.1 | 1.07 | 0.905 | 0.615 | 0.66 | 0.699 | 0.607 | 0.672 | – | – | – | – | – |
| NCI-H1623 | – | – | – | – | – | – | – | – | – | 0.592 | 0.595 | 0.543 | 0.585 | 0.553 | – | – | – | – | – |
| NCI-H1648 | – | 0.445 | 0.528 | 0.272 | – | – | – | – | – | – | – | – | – | – | 0.541 | – | 0.469 | 0.457 | 0.514 |
| NCI-H1650 | 0.605 | 0.448 | 0.651 | 0.553 | – | – | – | – | – | 0.527 | 0.448 | 0.431 | 0.383 | 0.353 | 0.715 | 0.534 | 0.521 | 0.747 | 0.575 |
| NCI-H1703 | – | – | – | – | 0.33 | 0.378 | 0.242 | 0.174 | 0.151 | – | – | – | – | – | – | – | – | – | – |
| NCI-H1792 | – | – | – | – | 0.707 | 0.741 | 0.697 | 0.705 | 0.666 | 0.185 | 0.351 | 0.244 | 0.282 | 0.317 | 0.422 | 0.545 | 0.399 | 0.485 | 0.347 |
| NCI-H2342 | 0.739 | 0.766 | 0.788 | 0.614 | – | – | – | – | – | 0.724 | 0.525 | 0.556 | 0.652 | 0.64 | 0.502 | 0.822 | 0.935 | 0.887 | 0.904 |
| SW 900 | 0.501 | 0.438 | 0.593 | 0.444 | – | – | – | – | – | 0.81 | 0.697 | 0.55 | 0.416 | 0.585 | 0.797 | – | 0.75 | 0.784 | 1.18 |
